Reference: US20260199231A1, “FLUTICASONE AND VILANTEROL FORMULATION AND INHALER” (KINDEVA DRUG DELIVERY L.P., priority 2018, published 2026)

Key:
[1] = Delivered dose study (start of unit life, unit spray collection apparatus, HPLC assay); type: physicochemical; details: Example 1 MDI: 0.1744% fluticasone furoate, 0.0698% vilanterol trifenatate, 99.7558% HFA-152a; coated 63 microliter valve; 28.3 L/min
Protocol: The start of unit life delivered dose was determined using standard unit spray collection apparatus (USCA) fitted with a filter. For each determination, an MDI was attached to the USCA using a coupler and actuated a single time. Immediately prior to attachment, the MDI was vigorously shaken. Prior to collection of the test sample, the MDI was primed by actuating four times. Prior to each priming shot the MDI was vigorously shaken. The flow rate through the equipment was regulated to 28.3 L/min+/−0.5 L/min. The test sample deposited in the USCA was collected by rinsing with a known volume of collection solvent. The recovered samples were then analyzed for sample content using an HPLC assay with reference to a known standard. An HPLC instrument with a UV detector (220 nm at 0 minutes, 240 nm at 5 minutes) and a symmetry shield RP18, 150 mm×4.6 mm (3.5 μm) column (temperature 25° C.) was used. The mobile phase was 10 mM SDS (sodium dodecyl sulphate), 60:40 (v/v) acetetonitrile:50 mM NH4OAc (ammonium acetate), pH 5.50. The injection volume was 50 μl and the flow rate was 1.0 mL/min.

[2] = Next Generation Impactor (NGI) studies, aerodynamic particle size distribution emitted from MDI; type: physicochemical; details: HFA-152a; for FPM (fine particle mass, particle size less than 5 micrometers, per actuation) / ISM (impactor sized mass, Cups 2-7, MOC and filter, per actuation) / MMAD (mass median aerodynamic diameter) / Throat hold up (throat assembly content divided by total ex-actuator content): Example 1 MDI: 0.1744% FF, 0.0698% vilanterol trifenatate, mean of three MDIs; for FPM (fine particle mass, particle size less than 5 micrometers, per actuation) / ISM (impactor sized mass, Cups 2-7, MOC and filter, per actuation) / MMAD (mass median aerodynamic diameter): 30 L/minute; for Throat hold up (throat assembly content divided by total ex-actuator content): Emmace anatomical throat
Protocol: The aerodynamic particle size distribution emitted from each MDI was evaluated using a Next Generation Impactor Instrument (MSP Corporation, Shoreview, MN). For each test, an MDI was attached to the throat component (Emmace anatomical throat, Emmace Consulting, Lund, Sweden) of the NGI instrument and actuated 6 times into the instrument. Prior to each actuation the MDI was vigorously shaken. Immediately prior to attachment, the MDI was primed by actuating 4 times. Prior to each priming shot the MDI was vigorously shaken. The flow rate through the instrument during testing was regulated at 30 L/minute. The test sample (fluticasone furoate and vilanterol trifenatate) deposited on the valve stem, actuator, throat assembly (Emmace anatomical throat), individual uncoated collection cups 1-7, micro-orifice collector (MOC), and final filter component was collected by rinsing each individual component with a known volume of collection solvent. The recovered samples were then analyzed for sample content using an HPLC assay with reference to a known standard. An HPLC instrument with a UV detector (220 nm at 0 minutes, 240 nm at 5 minutes) and a symmetry shield RP-18, 4.6-150 mm column (25° C. column temp) was used. The mobile phase was 10 mM SDS, 60:40 (v/v) acetonitrile:50 mM NH4OAc, pH 5.5). The injection volume was 50 microliters and the flow rate was 1.0 mL/min.
Throat hold up was determined as the ratio of the sample content from the throat assembly divided by the total ex-actuator content.
Fine particle mass (FPM) was calculated using CITDAS (Copley Inhaler Testing Data Analysis Software, from Copley Scientific, Nottingham, UK) as the sum of sample content with a particle size less than 5 micrometers (um), reported as micrograms per actuation (mcg/act).
Median mass aerodynamic diameter (MMAD) was calculated using CITDAS (Copley Inhaler Testing Data Analysis Software).
Impactor sized mass (ISM) was determined as the sum of the sample content determined for Cups 2-7, the MOC and the filter, reported as micrograms per actuation (mcg/act).

[3] = Example 2 MDI: 0.8791 wt. % fluticasone furoate, 0.1758 wt. % vilanterol trifenatate, coated 25 microliter valve
[4] = Example 3 MDI: 0.4396 wt. % fluticasone furoate, 0.0879 wt. % vilanterol trifenatate, 50 microliter valve
[5] = Example 4 MDI: 0.3489 wt. % fluticasone furoate, 0.0698 wt. % vilanterol trifenatate, 63 microliter valve
[6] = Example 5 MDI: 0.2198 wt. % fluticasone furoate, 0.0440 wt. % vilanterol trifenatate, uncoated 100 microliter valve
[7] = Example 6 MDI: 0.4396 wt. % fluticasone furoate, 0.1758 wt. % vilanterol trifenatate, coated 25 microliter valve
[8] = Example 7 MDI: 0.2198 wt. % fluticasone furoate, 0.0879 wt. % vilanterol trifenatate, 50 microliter valve
[9] = Example 8 MDI: 0.1744 wt. % fluticasone furoate, 0.0698 wt. % vilanterol trifenatate, 63 microliter valve
[10] = Example 9 MDI: 0.1099 wt. % fluticasone furoate, 0.0440 wt. % vilanterol trifenatate, uncoated 100 microliter valve

| Start of life dose content uniformity (delivered dose) [1] | FPM (fine particle mass, particle size less than 5 micrometers, per actuation) ([2]; 63 microliter valve) | ISM (impactor sized mass, Cups 2-7, MOC and filter, per actuation) ([2]; 63 microliter valve) | MMAD (mass median aerodynamic diameter) ([2]; 63 microliter valve) | Throat hold up (throat assembly content divided by total ex-actuator content) ([2]; 63 microliter valve) | calculated FPM [2, 3] | calculated MMAD [2, 3] | calculated FPM [2, 4] | calculated MMAD [2, 4] | calculated FPM [2, 5] | calculated MMAD [2, 5] | calculated FPM [2, 6] | calculated MMAD [2, 6] | calculated FPM [2, 7] | calculated MMAD [2, 7] | calculated FPM [2, 8] | calculated MMAD [2, 8] | calculated FPM [2, 9] | calculated MMAD [2, 9] | calculated FPM [2, 10] | SMILES | also measured |
| --- | --- | --- | --- | --- | --- | --- | --- | --- | --- | --- | --- | --- | --- | --- | --- | --- | --- | --- | --- | --- | --- |
| 23.1 mcg/actuation | 9.2 µg | 10.1 µg | 1.9 um | 61.4% | 13.6 micrograms/actuation | 2.6 micrometers | 8.8 micrograms/actuation | 2.7 micrometers | 6.7 micrograms/actuation | 2.3 micrometers | 5.5 micrograms/actuation | 2.5 micrometers | 11.4 micrograms/actuation | 2.1 micrometers | 7.7 micrograms/actuation | 2.2 micrometers | 5.9 micrograms/actuation | 2.3 micrometers | 4.2 micrograms/actuation | OCc1cc([C@@H](O)CNCCCCCCOCCOCc2c(Cl)cccc2Cl)ccc1O [V, vilanterol] | calculated MMAD [2, 10]: 2.6 micrometers |
| 90.9 mcg/actuation | 21.6 µg | 29.7 µg | 3.3 um | 70.8% | 104.9 micrograms/actuation | 3.5 micrometers | 69.3 micrograms/actuation | 3.4 micrometers | 55.9 micrograms/actuation | 3.3 micrometers | 45.2 micrograms/actuation | 3.3 micrometers | 41.0 micrograms/actuation | 3.1 micrometers | 26.3 micrograms/actuation | 2.9 micrometers | 23.8 micrograms/actuation | 3.0 micrometers | 19.3 micrograms/actuation | C[C@@H]1C[C@H]2[C@@H]3C[C@H](F)C4=CC(=O)C=C[C@]4(C)[C@@]3(F)[C@@H](O)C[C@]2(C)[C@@]1(OC(=O)c1ccco1)C(=O)SCF [FF, fluticasone furoate] | calculated MMAD [2, 10]: 3.2 micrometers |
